Measurements from ChEMBL document CHEMBL4229476, “Studies directed toward the asialoglycoprotein receptor mediated delivery of 5-fluoro-2'-deoxyuridine for hepatocellular carcinoma” (Bioorg Med Chem Lett, 2018).
Activity calls are given as the source filed them. The calls are words filed in the database; no cut-off is given here.

Test system: HepG2
Assay: Cytotoxicity against human HepG2 cells at 1.5 to 200 uM after 72 hrs by WST1 assay
Format: functional, cell-based

O=c1[nH]c(=O)n([C@H]2C[C@H](O)[C@@H](CO)O2)cc1F
Activity: Active

CC(=O)N[C@H]1[C@H](OCCCCCCNC(=O)CCOCC(COCCC(=O)NCCCCCCO[C@@H]2O[C@H](CO)[C@H](O)[C@H](O)[C@H]2NC(C)=O)(COCCC(=O)NCCCCCCO[C@@H]2O[C@H](CO)[C@H](O)[C@H](O)[C@H]2NC(C)=O)NC(=O)CCCC(=O)NCCCCCCOP(=O)(O)OC[C@H]2O[C@@H](n3cc(F)c(=O)[nH]c3=O)C[C@@H]2O)O[C@H](CO)[C@H](O)[C@@H]1O
Activity: Active
